{"source": "patent US10875874B2", "about": "“Ginkgolide B derivative and preparation method and use thereof” (Chengdu Baiyu Ginkgolide Pharmaceuticals Co., Ltd., priority 2015, dated 2020)", "key": {"[1]": {"tested_on": "spontaneously hypertensive rats (SHR)", "assay": "Caudal artery systolic pressure of spontaneously hypertensive rats, 8 weeks of continuous medication", "type": "in vivo, rat", "details": "x ± s, n = 8", "method_in_brief": "(§1)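 SHR rats of both sexes (200–250 g, 8/group) dosed intragastrically with 60 or 120 mg/kg/d, or captopril 27 mg/kg, once daily for 8 weeks; Wistar rats and vehicle SHR served as controls. Tail-cuff systolic pressure taken as the mean of 3 readings, measured before dosing and 30–120 min after the first dose, or 30 min post-dose on days 1–56 for chronic treatment.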"}, "[2]": {"assay": "Weekly body weight of SHR rats", "type": "in vivo, rat", "method_in_brief": "(§2)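 Male and female SHR rats (200-250 g, 8/group) dosed intragastrically once daily for 8 weeks with test compounds at 60 or 120 mg/kg/d or captopril 27 mg/kg; Wistar and SHR controls received distilled water. Body weight and food intake observed during treatment.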"}, "[3]": {"assay": "Weekly food intake of SHR rats", "type": "in vivo, rat", "method_in_brief": "as §2"}, "[4]": {"tested_on": "spontaneously hypertensive rats (SHR)", "assay": "Caudal artery systolic pressure of spontaneously hypertensive rats, single administration", "type": "in vivo, rat", "details": "x ± s, n = 8", "method_in_brief": "as §1"}, "Water solubility test": {"assay": "Water solubility test", "details": "purified water, thermodynamic from solid", "method": "Measuring method: samples are ground to obtain fine powder, target compounds are quantitatively weighed, the weighed compounds are added into purified water, and the solubility of the compounds is investigated by ultrasonics."}, "[5]": {"details": "60 mg/kg/d intragastric, week 0"}, "[6]": {"details": "60 mg/kg/d intragastric, week 1"}, "[7]": {"details": "60 mg/kg/d intragastric, week 2"}, "[8]": {"details": "60 mg/kg/d intragastric, week 3"}, "[9]": {"details": "60 mg/kg/d intragastric, week 4"}, "[10]": {"details": "60 mg/kg/d intragastric, week 5"}, "[11]": {"details": "60 mg/kg/d intragastric, week 6"}, "[12]": {"details": "60 mg/kg/d intragastric, week 7"}, "[13]": {"details": "60 mg/kg/d intragastric, week 8"}, "[14]": {"details": "120 mg/kg/d intragastric, week 0"}, "[15]": {"details": "120 mg/kg/d intragastric, week 1"}, "[16]": {"details": "120 mg/kg/d intragastric, week 2"}, "[17]": {"details": "120 mg/kg/d intragastric, week 3"}, "[18]": {"details": "120 mg/kg/d intragastric, week 4"}, "[19]": {"details": "120 mg/kg/d intragastric, week 5"}, "[20]": {"details": "120 mg/kg/d intragastric, week 6"}, "[21]": {"details": "120 mg/kg/d intragastric, week 7"}, "[22]": {"details": "120 mg/kg/d intragastric, week 8"}}, "note": "Marks after values point to notes of the source that are not given here."}
{"smiles": "C[C@@H]1C(=O)O[C@H]2[C@H](O)[C@@]34C5C[C@@H](C(C)(C)C)C36[C@@H](OC(=O)[C@@H]6OC(=O)[C@H](c3ccccc3Cl)N3CCc6sccc6C3)O[C@@]4(C(=O)O5)[C@@]12O", "note": "(some centres unmarked) [BL]", "values": [{"measurement": "Systolic pressure", "setting": "[1]; 60 mg/kg/d intragastric continuous, 1 d, 30 min after administration", "result": "154.08 ± 11.54", "unit": "mmHg"}, {"measurement": "Systolic pressure", "setting": "[1]; 60 mg/kg/d intragastric continuous, 7 d, 30 min after administration", "result": "156.92 ± 9.82", "unit": "mmHg"}, {"measurement": "Systolic pressure", "setting": "[1]; 60 mg/kg/d intragastric continuous, 13 d, 30 min after administration", "result": "156.07 ± 8.52", "unit": "mmHg"}, {"measurement": "Systolic pressure", "setting": "[1]; 60 mg/kg/d intragastric continuous, 19 d, 30 min after administration", "result": "153.96 ± 11.07", "unit": "mmHg"}, {"measurement": "Systolic pressure", "setting": "[1]; 60 mg/kg/d intragastric continuous, 25 d, 30 min after administration", "result": "154.57 ± 9.74", "unit": "mmHg"}, {"measurement": "Systolic pressure", "setting": "[1]; 60 mg/kg/d intragastric continuous, 35 d, 30 min after administration", "result": "153.67 ± 11.58", "unit": "mmHg"}, {"measurement": "Systolic pressure", "setting": "[1]; 60 mg/kg/d intragastric continuous, 49 d, 30 min after administration", "result": "149.68 ± 10.42", "unit": "mmHg"}, {"measurement": "Systolic pressure", "setting": "[1]; 60 mg/kg/d intragastric continuous, 56 d, 30 min after administration", "result": "153.62 ± 9.47", "unit": "mmHg"}, {"measurement": "Systolic pressure", "setting": "[1]; 60 mg/kg/d intragastric continuous, before administration", "result": "165.68 ± 16.35", "unit": "mmHg"}, {"measurement": "Systolic pressure", "setting": "[1]; 120 mg/kg/d intragastric continuous, 1 d, 30 min after administration", "result": "153.56 ± 8.15", "unit": "mmHg"}, {"measurement": "Systolic pressure", "setting": "[1]; 120 mg/kg/d intragastric continuous, 7 d, 30 min after administration", "result": "152.74 ± 10.25", "unit": "mmHg"}, {"measurement": "Systolic pressure", "setting": "[1]; 120 mg/kg/d intragastric continuous, 13 d, 30 min after administration", "result": "149.52 ± 10.24", "unit": "mmHg"}, {"measurement": "Systolic pressure", "setting": "[1]; 120 mg/kg/d intragastric continuous, 19 d, 30 min after administration", "result": "149.05 ± 11.09", "unit": "mmHg"}, {"measurement": "Systolic pressure", "setting": "[1]; 120 mg/kg/d intragastric continuous, 25 d, 30 min after administration", "result": "147.09 ± 12.68", "unit": "mmHg"}, {"measurement": "Systolic pressure", "setting": "[1]; 120 mg/kg/d intragastric continuous, 35 d, 30 min after administration", "result": "147.52 ± 10.64", "unit": "mmHg"}, {"measurement": "Systolic pressure", "setting": "[1]; 120 mg/kg/d intragastric continuous, 49 d, 30 min after administration", "result": "150.94 ± 11.06", "unit": "mmHg"}, {"measurement": "Systolic pressure", "setting": "[1]; 120 mg/kg/d intragastric continuous, 56 d, 30 min after administration", "result": "149.76 ± 12.63", "unit": "mmHg"}, {"measurement": "Systolic pressure", "setting": "[1]; 120 mg/kg/d intragastric continuous, before administration", "result": "164.25 ± 11.69", "unit": "mmHg"}, {"measurement": "Body weight", "setting": "[2]; [5]", "result": 230.9, "unit": "g"}, {"measurement": "Body weight", "setting": "[2]; [6]", "result": 236.4, "unit": "g"}, {"measurement": "Body weight", "setting": "[2]; [7]", "result": 243.1, "unit": "g"}, {"measurement": "Body weight", "setting": "[2]; [8]", "result": 252.8, "unit": "g"}, {"measurement": "Body weight", "setting": "[2]; [9]", "result": "260.9^▴▴ g"}, {"measurement": "Body weight", "setting": "[2]; [10]", "result": "265.8^▴▴ g"}, {"measurement": "Body weight", "setting": "[2]; [11]", "result": "270.6^▴ g"}, {"measurement": "Body weight", "setting": "[2]; [12]", "result": "277.3^▴▴ g"}, {"measurement": "Body weight", "setting": "[2]; [13]", "result": "285.4^▴▴ g"}, {"measurement": "Body weight", "setting": "[2]; [14]", "result": 230.6, "unit": "g"}, {"measurement": "Body weight", "setting": "[2]; [15]", "result": "251.8^▴▴ g"}, {"measurement": "Body weight", "setting": "[2]; [16]", "result": "257.3^▴▴ g"}, {"measurement": "Body weight", "setting": "[2]; [17]", "result": "264.1^▴▴ g"}, {"measurement": "Body weight", "setting": "[2]; [18]", "result": "270.5^▴▴ g"}, {"measurement": "Body weight", "setting": "[2]; [19]", "result": "281.7^▴▴ g"}, {"measurement": "Body weight", "setting": "[2]; [20]", "result": "290.3^▴▴ g"}, {"measurement": "Body weight", "setting": "[2]; [21]", "result": "302.8^▴▴ g"}, {"measurement": "Body weight", "setting": "[2]; [22]", "result": "315.2^▴▴ g"}, {"measurement": "Average dairy food intake", "setting": "[3]; [5]", "result": 18.4, "unit": "g/day"}, {"measurement": "Average dairy food intake", "setting": "[3]; [6]", "result": "19.4^▴ g/d"}, {"measurement": "Average dairy food intake", "setting": "[3]; [7]", "result": "20.5^▴▴ g/d"}, {"measurement": "Average dairy food intake", "setting": "[3]; [8]", "result": "21.0^▴▴ g/d"}, {"measurement": "Average dairy food intake", "setting": "[3]; [9]", "result": "20.9^▴▴ g/d"}, {"measurement": "Average dairy food intake", "setting": "[3]; [10]", "result": "21.9^▴▴ g/d"}, {"measurement": "Average dairy food intake", "setting": "[3]; [11]", "result": "23.5^▴▴ g/d"}, {"measurement": "Average dairy food intake", "setting": "[3]; [12]", "result": "24.5^▴▴ g/d"}, {"measurement": "Average dairy food intake", "setting": "[3]; [13]", "result": "25.1^▴▴ g/d"}, {"measurement": "Average dairy food intake", "setting": "[3]; [14]", "result": 18.6, "unit": "g/day"}, {"measurement": "Average dairy food intake", "setting": "[3]; [15]", "result": "20.0^▴ g/d"}, {"measurement": "Average dairy food intake", "setting": "[3]; [16]", "result": "20.8^▴▴ g/d"}, {"measurement": "Average dairy food intake", "setting": "[3]; [17]", "result": "21.9^▴▴ g/d"}, {"measurement": "Average dairy food intake", "setting": "[3]; [18]", "result": "22.7^▴▴ g/d"}, {"measurement": "Average dairy food intake", "setting": "[3]; [19]", "result": "23.5^▴▴ g/d"}, {"measurement": "Average dairy food intake", "setting": "[3]; [20]", "result": "24.6^▴▴ g/d"}, {"measurement": "Average dairy food intake", "setting": "[3]; [21]", "result": "25.1^▴▴ g/d"}, {"measurement": "Average dairy food intake", "setting": "[3]; [22]", "result": "26.7^▴▴ g/d"}, {"measurement": "Systolic pressure", "setting": "[4]; 60 mg/kg intragastric single administration, 30 min", "result": "158.36 ± 10.54", "unit": "mmHg"}, {"measurement": "Systolic pressure", "setting": "[4]; 60 mg/kg intragastric single administration, 60 min", "result": "154.68 ± 12.48", "unit": "mmHg"}, {"measurement": "Systolic pressure", "setting": "[4]; 60 mg/kg intragastric single administration, 90 min", "result": "152.74 ± 12.58", "unit": "mmHg"}, {"measurement": "Systolic pressure", "setting": "[4]; 60 mg/kg intragastric single administration, 120 min", "result": "152.04 ± 10.02", "unit": "mmHg"}, {"measurement": "Systolic pressure", "setting": "[4]; 60 mg/kg intragastric single administration, before administration", "result": "165.68 ± 16.35", "unit": "mmHg"}, {"measurement": "Systolic pressure", "setting": "[4]; 120 mg/kg intragastric single administration, 30 min", "result": "148.01 ± 5.98", "unit": "mmHg"}, {"measurement": "Systolic pressure", "setting": "[4]; 120 mg/kg intragastric single administration, 60 min", "result": "151.36 ± 9.45", "unit": "mmHg"}, {"measurement": "Systolic pressure", "setting": "[4]; 120 mg/kg intragastric single administration, 90 min", "result": "152.95 ± 12.54", "unit": "mmHg"}, {"measurement": "Systolic pressure", "setting": "[4]; 120 mg/kg intragastric single administration, 120 min", "result": "151.98 ± 9.26", "unit": "mmHg"}, {"measurement": "Systolic pressure", "setting": "[4]; 120 mg/kg intragastric single administration, before administration", "result": "164.25 ± 11.69", "unit": "mmHg"}, {"measurement": "solubility", "setting": "Water solubility test", "result": 200, "unit": "µg/mL"}]}
